Here are results for 11 compounds from paper PMC8306477, “Neuroprotective Effect of Terpenoids Recovered from Olive Oil By-Products” (Foods, 2021).

Read-outs that look alike come from different tables or passages of the source. Marks after values point to notes of the source that are not given here.

Data set [1] is described as follows: ABTS•+ radical scavenging assay. To be noted: mean ± SD (n = 3); 45 min, 30 °C. As for the experimental part:
Antioxidant activity of all olive leaves extracts was measured using the ABTS^•+ radical scavenging assay according to Re et al., (1999) with modifications. […] After this time, radical ABTS^•+ solution was diluted with the buffer (5 mM, pH 7.4) to adjust the absorbance to 0.700 ± 0.002 measured at 734 nm wavelength and 30 °C. The 96-well microplate containing 250 μL ABTS^•+ solution and 100 μL of olive leaves extract at six different concentrations (from 14.3 to 143 μg/mL EtOH/H2O (1:1, v/v)) was incubated in the dark at 30 °C. After 45 min, the absorbance at 734 nm was measured. Trolox and ascorbic acid were used as reference standards while rosemary extract was used as natural reference standard. All measurements were performed in triplicate. ABTS^•+ inhibition percentage from olive leaves extracts was calculated as follows:(3) %Inh=AABTScontrol−(Asample−Asample blank)/AABTS control×100 where AABTScontrol is the absorbance of ABTS^•+ radical in buffer at t = 0 min; Asample, is the absorbance of an ABTS^•+ solution mixed with extracts; and Asample blank is the absorbance of samples without ABTS^•+.

A short description of data set [2]: ROS scavenging capacity, ORAC method. To be noted: mean ± SD (n = 3). As for the experimental part: Oxygen radical absorbance capacity (ORAC) method was performed as reported by Ou et al. (2001). Briefly, 100 μL of the extract sample at different concentrations (5–50 μg/mL) in EtOH/H2O (1: 9, v/v), 100 μL of AAPH (590 mM) in PBS buffer (30 mM, pH = 7.5), 25 μL of fluorescein (10 μM) in PBS buffer, and 100 μL of PBS buffer were placed in a 96-well microplate. The fluorescence kinetic measurements were recorded at λexcitation = 485 nm and λemission = 530 nm at intervals of 5 min for a runtime of 60 min at 37 °C. Ascorbic acid was used as the reference standard. Each measurement was carried out in triplicate and the capacity of the extract for scavenging peroxyl radicals generated by spontaneous decomposition of AAPH was calculated through the inhibition percentage of the difference between the Area Under the Curve (AUC) of fluorescence decay in the presence (AUCsample) or absence (AUCcontrol) of the sample by Equation (4). (4) %Inh=AUCcontrol−AUCsample/AUCcontrol×100

A short description of data set [3]: RNS scavenging capacity, nitric oxide radical (Griess) assay. The note with it: NO• scavenging; mean ± SD (n = 3). The method, then: RNS was evaluated by the nitric oxide (NO^•) radical scavenging assay of OLE, according to Ho et al. (2010), based on the reaction of Griess. The 96-well microplate filling distribution was as follows: 100 μL of extract sample at different concentrations (250–2500 μg/mL) in EtOH/H2O (1:3, v/v), and 50 μL of SNP (5 mM) in buffer (30 mM pH = 7.5). The mixture was incubated at room temperature for 2 h under direct light. Nitrile ion concentration was measured at […] after the addition of […] Ascorbic acid was used as the reference standard. Each measurement was carried out in triplicate and the capacity of the extract for scavenging NO^• radicals was calculated through inhibition percentage as described in Equation (3).

Data set [4] can be described thus: PAMPA-BBB permeability of terpenes of SS adsorbate. In kind it is in vitro ADME. The method, then:
Previously, the BBB solution was prepared by dissolving 8 mg of PBL and 4 mg of cholesterol in 600 μL n-dodecane. Ethanolic olive leaves extract was dissolved in buffer (5 mM pH 7.4) as an initial solution at 10 mg/mL (EtOH/buffer, 1:1, v/v). Then, the filter membrane of the donor microplate was impregnated with 5 μL of BBB solution and the acceptor microplate was filled with 350 μL of buffer. Then, 200 μL of initial solution was added to the donor microplate which was assembled like a sandwich over the acceptor microplate. The microplate was incubated in the dark for 4 h at 37 °C and continuous agitation. After the incubation process, 200 μL were taken from each microplate, placed into a vial, dried, and reconstituted in 50 μL of EtOH to obtain donor and acceptor solutions. Both solutions were injected in the GC-qTOF-MS system to identify and compare the compounds present in both microplates. […] CD(t) is compound concentration in the donor well at time t and CA(t) is compound concentration in the acceptor well at time t.

On the set-up of data set [5]: method as in PMID 23565574. The note with it: BBB permeability of pharmacological drugs; cited from earlier work.
Setting [6] is: terpene within Sea Sand Adsorbate, 4 h, 37 °C, buffer pH 7.4, GC-qTOF-MS, read-out: PAMPA-BBB Log Pe (RSD %) (converted).

As to `Cc1c(C)c2c(c(C)c1O)CCC(C)(C(=O)O)O2` (racemic) [Trolox, (±)-6-Hydroxy-2,5,7,8-tetramethylchromane-2-carboxylic acid], the “Antioxidant Capacity by ABTS IC50” value in data set [1] is on record as 2.50 ± 0.02 ^r µg/mL. For the same compound, the “ROS IC50” value in data set [2] is recorded as 0.98 ± 0.11 ^c µg/mL. With `O=C1O[C@H]([C@@H](O)CO)C(O)=C1O` [Ascorbic acid], the “Antioxidant Capacity by ABTS IC50” value in data set [1] is 25.00 ± 0.30 ^a µg/mL. Also, the “ROS IC50” value in data set [2] is recorded as 1.29 ± 0.09 ^b µg/mL. The “RNS IC50” value in data set [3] is on record as 1100.90 ± 13.96 ^b µg/mL. On to `CC1(C)CC[C@]2(CO)CC[C@]3(C)C(=CC[C@@H]4[C@@]5(C)CC[C@H](O)C(C)(C)[C@@H]5CC[C@]43C)[C@@H]2C1` [Erythrodiol], for which the Papp at 4 h in data set [4] (setting [6]) is 0.575 ×10⁻⁶ cm/s. Regarding `COc1ccc2c3c1O[C@H]1C[C@@H](O)C=C[C@@]31CCN(C)C2` [Galantamine], the “log Pe ± SD” value in data set [5] is −5.35 ± 0.02 cm/s. `O=c1c(O)c(-c2ccc(O)c(O)c2)oc2cc(O)cc(O)c12` [Quercetin]: the “log Pe ± SD” value in data set [5] is reported as −7.02 ± 0.08 cm/s. Consider `CC(C)=CCC/C(C)=C/CC/C(C)=C/CC/C=C(\C)CC/C=C(\C)CCC=C(C)C` [Squalene], for which the Papp at 4 h in data set [4] (setting [6]) is 13.2 ×10⁻⁶ cm/s. Take `C[C@H]1[C@H](C)CC[C@]2(CO)CC[C@]3(C)C(=CC[C@@H]4[C@@]5(C)CC[C@H](O)C(C)(C)[C@@H]5CC[C@]43C)[C@H]12` [Uvaol]: the Papp at 4 h in data set [4] (setting [6]) was 1.51 ×10⁻⁶ cm/s.

As for `Cc1c(C)c2c(c(C)c1O)CC[C@@](C)(CCC[C@H](C)CCC[C@H](C)CCCC(C)C)O2` [α-Tocopherol], in data set [4] (setting [6]), the Papp at 4 h was 1.15 ×10⁻⁶ cm/s. Consider `CC1(C)CC[C@]2(C)CC[C@]3(C)C(=CC[C@@H]4[C@@]5(C)CC[C@H](O)C(C)(C)[C@@H]5CC[C@]43C)[C@@H]2C1` [β-Amyrin], for which the Papp at 4 h in data set [4] (pH 7.4) is 0.479 ×10⁻⁶ cm/s.

For `CC[C@H](CC[C@@H](C)[C@H]1CC[C@H]2[C@@H]3CC=C4C[C@@H](O)CC[C@]4(C)[C@H]3CC[C@]12C)C(C)C` [β-Sitosterol], the Papp at 4 h in data set [4] (setting [6]) is 0.912 ×10⁻⁶ cm/s. Consider `Cc1c(O)cc2c(c1C)O[C@](C)(CCC[C@H](C)CCC[C@H](C)CCCC(C)C)CC2` [γ-Tocopherol], for which, in data set [4] (setting [6]), the Papp at 4 h is 8.91 ×10⁻⁶ cm/s.
